# According to PubChem BioAssay AID330 (DTP/NCI, 2004):
# “And” between values parts separate entries of the source, which are not always exact repeats. Equal values may be shown once. Inconclusive results and toxic doses are left out.
# Tested on: P388 leukemia ip, CD2F1 mice, survival T/C
# Test: NCI In Vivo Anticancer Drug Screen. Data for tumor model P388 Leukemia (intraperitoneal) in CD2F1 (CDF1) mice
# Details: endpoint: median survival time, higher = longer survival
# How it was run: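 Mice carrying the transplanted tumor received test compound or vehicle. Survival was recorded in each group, and the value is the treated-group measurement divided by that of the vehicle-treated control group.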
# [1] = dose: 50.0 mg/kg/injection, schedule: Q01DX009 (ip), vehicle: saline with Tween-80
# [2] = dose: 100.0 mg/kg/injection, schedule: Q04DX003 (ip), vehicle: saline
# [3] = dose: 200.0 mg/kg/injection, schedule: Q04DX003 (ip), vehicle: saline
smiles,measurement,setting,value
C[N+](C)(C)CC1CS1 (stereo not given),T/C,"dose: 4.5 mg/kg/injection, schedule: Q01DX009 (ip), vehicle: saline",104 % of control
same,T/C,"dose: 9.0 mg/kg/injection, schedule: Q01DX009 (ip), vehicle: saline",95 % of control
same,T/C,"dose: 18.0 mg/kg/injection, schedule: Q01DX009 (ip), vehicle: saline",100 % of control
Cc1cccc(C)c1NC(=O)NNC(N)=S,T/C,[1],97 % of control
CC1(C)OC2(C)CCC1C1C2N1C(=O)NCCCl (stereo not given),T/C,"dose: 50.0 mg/kg/injection, schedule: Q01DX005 (ip), vehicle: saline",108 % of control
same,T/C,"dose: 100.0 mg/kg/injection, schedule: Q01DX005 (ip), vehicle: saline",100 % of control
same,T/C,"dose: 200.0 mg/kg/injection, schedule: Q01DX005 (ip), vehicle: saline",89 % of control
CCOC(=O)c1ccc(NC(CCSc2ccccc2)=NC(C)(C)C)cc1,T/C,[1],103 % of control
same,T/C,"dose: 100.0 mg/kg/injection, schedule: Q01DX009 (ip), vehicle: saline with Tween-80",107 % of control
same,T/C,"dose: 200.0 mg/kg/injection, schedule: Q01DX009 (ip), vehicle: saline with Tween-80",94 % of control
NC(=O)c1ccc(N)nc1,T/C,"dose: 0.63 mg/kg/injection, schedule: Q01DX009 (ip), vehicle: saline",104 % of control
same,T/C,"dose: 1.25 mg/kg/injection, schedule: Q01DX009 (ip), vehicle: saline",100 % of control
same,T/C,"dose: 1.56 mg/kg/injection, schedule: Q01DX009 (ip), vehicle: saline with Tween-80",110 % of control
same,T/C,"dose: 2.5 mg/kg/injection, schedule: Q01DX009 (ip), vehicle: saline",121 % of control
same,T/C,"dose: 3.12 mg/kg/injection, schedule: Q01DX009 (ip), vehicle: saline with Tween-80",122 % of control
same,T/C,"dose: 6.25 mg/kg/injection, schedule: Q01DX009 (ip), vehicle: saline with Tween-80",117 % of control and 95 % of control
same,T/C,"dose: 6.25 mg/kg/injection, schedule: Q04DX003 (ip), vehicle: saline with Tween-80",109 % of control
COc1ccc(N=c2nc3n4c(c(Br)cc(Br)c4n2)NC(C(Br)(Br)Br)=N3)cc1,T/C,"dose: 60.0 mg/kg/injection, schedule: Q01DX005 (ip), vehicle: saline with Tween-80",90 % of control
same,T/C,"dose: 120.0 mg/kg/injection, schedule: Q01DX005 (ip), vehicle: saline with Tween-80",92 % of control
same,T/C,"dose: 240.0 mg/kg/injection, schedule: Q01DX005 (ip), vehicle: saline with Tween-80",100 % of control
COC(=O)CC1c2ccc3cc(OC)ccc3c2CCC1(C)C(=O)OC (stereo not given),T/C,"dose: 50.0 mg/kg/injection, schedule: Q01DX005 (ip), vehicle: saline with Tween-80",103 % of control
same,T/C,"dose: 100.0 mg/kg/injection, schedule: Q01DX005 (ip), vehicle: saline with Tween-80",96 % of control
same,T/C,"dose: 200.0 mg/kg/injection, schedule: Q01DX005 (ip), vehicle: saline with Tween-80",98 % of control
COc1ccc(C(=O)NC(C(N)=O)C(N)=O)cc1,T/C,[2],99 % of control
same,T/C,[3],99 % of control
same,T/C,"dose: 400.0 mg/kg/injection, schedule: Q04DX003 (ip), vehicle: saline",97 % of control
O=C1C2=C(C(=O)c3ncccc31)C1C=CC2CC1 (stereo not given),T/C,"dose: 25.0 mg/kg/injection, schedule: Q01DX005 (ip), vehicle: DMSO",100 % of control
same,T/C,"dose: 50.0 mg/kg/injection, schedule: Q01DX005 (ip), vehicle: DMSO",100 % of control
same,T/C,"dose: 50.0 mg/kg/injection, schedule: Q01DX005 (ip), vehicle: Klucel + Tween-80",102 % of control
same,T/C,"dose: 100.0 mg/kg/injection, schedule: Q01DX005 (ip), vehicle: DMSO",104 % of control
same,T/C,"dose: 100.0 mg/kg/injection, schedule: Q01DX005 (ip), vehicle: Klucel + Tween-80",96 % of control
Cc1cc([N+](=O)[O-])c([N+](=O)[O-])cc1Cl,T/C,"dose: 50.0 mg/kg/injection, schedule: Q01DX001 (ip), vehicle: other",100 % of control
same,T/C,"dose: 100.0 mg/kg/injection, schedule: Q01DX001 (ip), vehicle: other",100 % of control
same,T/C,"dose: 200.0 mg/kg/injection, schedule: Q01DX001 (ip), vehicle: other",105 % of control
C=C(C(=O)O)C(=O)O,T/C,"dose: 50.0 mg/kg/injection, schedule: Q01DX009 (ip), vehicle: saline",105 % of control
same,T/C,"dose: 50.0 mg/kg/injection, schedule: Q04DX003 (ip), vehicle: saline",115 % of control
same,T/C,"dose: 100.0 mg/kg/injection, schedule: Q01DX009 (ip), vehicle: saline",110 % of control
same,T/C,[2],105 % of control
same,T/C,[3],115 % of control
COc1ccc(CC2C(=O)NC(C)C(=O)N(C)C3C(=O)N(C)C(Cc4ccc(OC(C)=O)c(c4)Oc4ccc(cc4)C3OC(C)=O)C(=O)NC(C)C(=O)NC(C)C(=O)N2C)cc1 (stereo not given),T/C,"dose: 2.0 mg/kg/injection, schedule: Q01DX009 (ip), vehicle: none",154 % of control
CCN=C(NCC)Nc1ccc(NC(=O)Nc2ccc(NC(=O)Nc3ccc(NC(=NCC)NCC)cc3)cc2)cc1,T/C,"dose: 6.25 mg/kg/injection, schedule: Q01DX005 (ip), vehicle: Klucel (hydroxypropylcellulose) (HPC)",107 % of control
same,T/C,"dose: 12.5 mg/kg/injection, schedule: Q01DX005 (ip), vehicle: Klucel (hydroxypropylcellulose) (HPC)",117 % of control
same,T/C,"dose: 25.0 mg/kg/injection, schedule: Q01DX005 (ip), vehicle: Klucel (hydroxypropylcellulose) (HPC)",121 % of control and 123 % of control
same,T/C,"dose: 50.0 mg/kg/injection, schedule: Q01DX005 (ip), vehicle: Klucel (hydroxypropylcellulose) (HPC)",117 % of control
same,T/C,"dose: 200.0 mg/kg/injection, schedule: Q01DX005 (ip), vehicle: Klucel (hydroxypropylcellulose) (HPC)",90 % of control
